Measured values from patent publication US6040338A, “N,n-bis(sulfonyl)hydrazines useful as antineoplastic agents” (Yale University, priority 1997, dated 2000).
“Also recorded” adds a separate entry of the source. Where a name gives a salt, the structure may show the parent alone.

Key:
[1] = Activation by hydrolysis in phosphate buffer; type: physicochemical; details: 1 mM phosphate buffer, pH 7.4, 37° C.
Protocol: (§1) The rates of activation of compounds 10a-h were measured in 1 mM phosphate buffer (pH 7.4, 37° C.) alone, 1 mM phosphate buffer containing 5 mM GSH (pH 7.4, 37° C.), and in 1 mM phosphate buffer containing 5 mM GSH and 17.5 U/ml of GST (pH 7.4, 37° C.) (Table 3).

[2] = Activation by thiolysis (GSH); type: in vitro ADME; details: 1 mM phosphate buffer, 5 mM GSH, pH 7.4, 37° C.
Protocol: as §1

GST = assay: Activation by GST-catalyzed thiolysis; type: in vitro ADME; details: 1 mM phosphate buffer, 5 mM GSH, 17.5 U/ml GST, pH 7.4, 37° C.
Protocol: as §1

L1210 leukemia = assay: Survival time and body weight of mice bearing the L1210 leukemia; type: in vivo, mice (CD2 F1); details: for % 60-day survivors / Av Δ wt (average percent change in body weight from onset to termination of therapy): Table 4; for % 60-day survivors: i.p. once daily for 6 days at optimum daily dose (30 mg/kg for 10d-g); for Av Δ wt (average percent change in body weight from onset to termination of therapy): i.p. once daily for 6 days at optimum daily dose (10a 60, 10b 25, 10c 12.5, 10d-h 30 mg/kg); for % Body Weight Change / Average Survival / T/C / Long Term Survival: Table 5; for Long Term Survival: survivors/animals
Protocol: The ascites cell form of leukemia L1210 was obtained from the Frederick Cancer Research Facility, Division of Cancer Treatment Tumor Repository of the National Cancer Institute, and was maintained by serial passage in tissue culture. Every 8 weeks, tumor cells were injected intraperitoneally into 5 donor CD2 F1 mice 8-10 weeks of age and were allowed to grow for 7 days. The peritoneal fluid was withdrawn, and the suspension was centrifuged for 5 min at 1600×g. The supernatant was decanted, and 10^5 cells/ml were seeded into 10 ml of RPMI 1640 medium supplemented with 10% fetal bovine serum and 1% L-glutamine (200 mM) and once again maintained in culture. To assay for antitumor activity, 0.1 ml of the cell suspension containing 10^5 leukemia cells was injected into each recipient mouse. […] Each drug was administered intraperitoneally as a solution in 100% dimethyl sulfoxide, in a volume not exceeding 25 μl. […] Mice were weighed during the course of the experiments, and the percentage change in body weight from onset to termination of therapy was used as an indication of drug toxicity. Determination of the sensitivity of neoplasms to these agents was based upon the prolongation of survival time afforded by the drug treatments.
The antitumor activity of compounds 10a-h and 16 were assessed in mice bearing the L1210 leukemia. The results of these tests are summarized in Tables 4 and 5 which show the effects of 2-alkoxycarbonyl- and 2-aryloxycarbonyl-1,2-bis(methylsulfonyl)-1-(2-chloroethyl)hydrazines on the survival time of mice bearing the L1210 leukemia.
In Table 4, the optimum daily dose was administered once per day for six consecutive days, beginning 24 hours after tumor implantation, with 5-10 mice being used per group. In Table 5, multiple dosages of compound 16 are indicated. "Av Δ wt" refers to the average percent change in body weight from onset to termination of therapy. "% T/C" refers to the average survival time of treated/control mice×100. Cures (60-day survivors) are listed separately and are not included in this calculation.

GSH/GST = assay: Relative rate of activation by GSH/GST in vitro; type: in vitro ADME; details: GSH 1 mM, GST 400 μg/ml; for Relative Activation Rate by GSH/GST: 1 mM compound, compound 6 = 100
Protocol: When R^3 is a methyl group, the rate of activation by GSH/GST is highly dependent upon the nature of the 2-alkoxy- or 2-aryloxycarbonyl moiety at the R^4 position.
The rate of activation of 2-(2-bromoethoxy)carbonyl-1,2-bis(methylsulfonyl)-1-methylhydrazine (compound 8) was elevated approximately 18-fold in vitro by the presence of GSH (1 mM) and GST (400 μg/ml), compared to buffer alone.

[3] = tested on: EMT6 mammary carcinoma cells; assay: Colony-forming assay, EMT6 cells under hypoxic or aerobic conditions; type: cell-based, mouse; details: 1 hr
Protocol: The ability of compounds 10h, 11, 12, and 14 to exert preferential toxicity to hypoxic cells was evaluated using the EMT6 mammary carcinoma by methodology described previously (Rockwell, S., Keyes, S. R., and Sartorelli, A. C. Rad. Res. 116: 100-113 (1988); Keyes, S. R., Rockwell, S., and Sartorelli, A. C. Cancer Res. 45: 213-216 (1985)). Briefly, exponentially growing monolayers of EMT6 (or CHO-K1/dhfr clone) were exposed to a continuously flowing 95% N2 /5% CO2 humidified atmosphere for 2 h to produce radiobiologic hypoxia. Parallel flasks were maintained similarly in humidified 95% air/5% CO2. Without breaking the hypoxia, cells were exposed to various concentrations of the test agent for 1 hr. Cell survival was then measured by colony formation.
The cytotoxicity of compound 10h was evaluated against EMT6 mouse mammary carcinoma cells in vitro under aerobic and hypoxic conditions using the colony-forming assay described above. FIG. 1 depicts the survival of EMT6 cells exposed to various concentrations of compound 10h for 1 hr under hypoxic or aerobic conditions in vitro. Points are the geometric means of two or more independent determinations of surviving fractions. The SEMs are shown where n≥3 and where the error is larger than the point size. Open triangles represent aerobic data points and filled triangles represent hypoxic data points.
Compound 12 was evaluated for its ability to exert preferential toxicity to hypoxic EMT6 cells relative to their aerobic counterparts. […] Points are geometric means of two or more independent determinations of surviving fractions. The SEMs are shown where n≥3 and where the error is larger than the point size. Open triangles are aerobic data points, and filled triangles are hypoxic data points. […] Points are means of duplicate determinations. Open triangles are parental-aerobic; filled triangles are parental-hypoxic; open circles are NADPH:cytochrome P450 reductase-transfected-aerobic; filled circles are NADPH:cytochrome P450 reductase-transfected-hypoxic.

SMILES	Calculated Activation Rate due to Hydrolysis [1] [nmol/mL/min]	Calculated Activation Rate due to Thiolysis (5 mM GSH) [2] [nmol/mL/min]	Calculated Activation Rate due to Catalyzed Thiolysis (5 mM GSH + 17.5 U/ml GST) (GST) [nmol/mL/min]	% 60-day survivors (L1210 leukemia) [%]	Av Δ wt (average percent change in body weight from onset to termination of therapy) (L1210 leukemia) [%]	other results
CS(=O)(=O)N(CCCl)N(C(=O)Oc1ccc(Cl)cc1)S(C)(=O)=O [Compound 10f, 1,2-Bis(methylsulfonyl)-1-(2-chloroethyl)-2-[(4-chlorophenoxy)carbonyl]hydrazine]	0.06	0.92	5.33	80	-1.1	–
CS(=O)(=O)N(CCCl)N(C(=O)OCOP(=O)(O)O)S(C)(=O)=O [Compound 16, triethanolamine salt of the free acid acid of O-dibenzylphosphate-methyl carbamate]	–	–	–	–	–	% Body Weight Change (L1210 leukemia; multiple dose 6 × 10 mg/kg): -3.6%; Average Survival (L1210 leukemia; multiple dose 6 × 10 mg/kg): 14.7 days; T/C (L1210 leukemia; multiple dose 6 × 10 mg/kg): 184%; Long Term Survival (L1210 leukemia; multiple dose 6 × 10 mg/kg): 2/5; % Body Weight Change (L1210 leukemia; multiple dose 6 × 20 mg/kg): +2.5%; Average Survival (L1210 leukemia; multiple dose 6 × 20 mg/kg): 19.5 days; T/C (L1210 leukemia; multiple dose 6 × 20 mg/kg): 244%; Long Term Survival (L1210 leukemia; multiple dose 6 × 20 mg/kg): 3/5; % Body Weight Change (L1210 leukemia; multiple dose 6 × 40 mg/kg): +3.7%; Long Term Survival (L1210 leukemia; multiple dose 6 × 40 mg/kg): 5/5; % Body Weight Change (L1210 leukemia; multiple dose 6 × 60 mg/kg): -23.2%; Average Survival (L1210 leukemia; multiple dose 6 × 60 mg/kg): 11.0 days; T/C (L1210 leukemia; multiple dose 6 × 60 mg/kg): 138%; Long Term Survival (L1210 leukemia; multiple dose 6 × 60 mg/kg): 3/5; activity against the L1210 leukemia (in words) (L1210 leukemia; i.p. once daily for 6 days): significant activity against the L1210 leukemia tumor; also recorded: significant antitumor activity
CS(=O)(=O)N(CCCl)N(C(=O)OCCCl)S(C)(=O)=O [Compound 10b, 1,2-Bis(methylsulfonyl)-1-(2-chloroethyl)-2-(2-chloroethoxycarbonyl)hydrazine]	0.02	0.02	0.08	–	-10.7	–
CN(N(C(=O)OCCBr)S(C)(=O)=O)S(C)(=O)=O [Compound 8, 1,2-Bis(methylsulfonyl)-2-(2-bromoethoxycarbonyl)-1-methylhydrazine]	–	–	–	–	–	Relative Activation Rate by GSH/GST (GSH/GST): 300; elevation of rate of activation by GSH and GST compared to buffer alone (GSH/GST; in vitro): approximately 18 fold
COc1ccc(OC(=O)N(N(CCCl)S(C)(=O)=O)S(C)(=O)=O)cc1 [Compound 10g, 1,2-Bis(methylsulfonyl)-1-(2-chloroethyl)-2-[(4-methoxyphenoxy)carbonyl]hydrazine]	0.14	0.41	1.80	40	-2.5	–
CS(=O)(=O)N(CCCl)N(C(=O)Oc1ccccc1)S(C)(=O)=O [Compound 10d, 1,2-Bis(methylsulfonyl)-1-(2-chloroethyl)-2-(phenoxycarbonyl)hydrazine]	0.06	0.37	1.80	40	-1.0	–
C=COC(=O)N(N(CCCl)S(C)(=O)=O)S(C)(=O)=O [Compound 10c, 1,2-Bis(methylsulfonyl)-1-(2-chloroethyl)-2-(vinyloxycarbonyl)hydrazine]	0.07	2.07	4.70	–	-12.4	–
CS(=O)(=O)N(CCCl)N(C(=O)OCc1ccccc1)S(C)(=O)=O [Compound 11, 2-Benzyloxycarbonyl-1,2-bis(methylsulfonyl)-1-(2-chloroethyl)hydrazine]	–	–	–	–	–	toxicity to EMT6 cells, aerobic versus hypoxic (in words) ([3]; hypoxic or aerobic (FIG. 2)): essentially equitoxic to EMT6 cells under both conditions of oxygenation
CC(OC(=O)N(N(CCCl)S(C)(=O)=O)S(C)(=O)=O)c1ccc([N+](=O)[O-])cc1 (centres unmarked) [Compound 14, 1,2-Bis(methylsulfonyl)-1-(2-chloroethyl)-2-[[1-(4-nitrophenyl)ethoxy]carbonyl]hydrazine]	–	–	–	–	–	toxicity to aerobic EMT6 cells compared with compound 10h (in words) ([3]; aerobic (FIG. 7 versus FIG. 1)): less toxic to aerobic EMT6 cells than compound 10h; toxicity to hypoxic EMT6 cells compared with compound 10h (in words) ([3]; hypoxic (FIG. 7 versus FIG. 1)): essentially the same as that of compound 10h
Cc1ccc(OC(=O)N(N(CCCl)S(C)(=O)=O)S(C)(=O)=O)cc1 [Compound 10e, 1,2-Bis(methylsulfonyl)-1-(2-chloroethyl)-2-[(4-tolyloxy)carbonyl]hydrazine]	0.02	0.45	1.52	20	-3.0	–
COC(=O)N(N(CCCl)S(C)(=O)=O)S(C)(=O)=O [Compound 10a, 1,2-Bis(methylsulfonyl)-1-(2-chloroethyl)-2-(methoxycarbonyl)hydrazine]	0.03	0.02	0.00	–	-10.9	–
COc1ccc(OC(=O)N(N(C)S(C)(=O)=O)S(C)(=O)=O)cc1 [Compound 9, 1,2-Bis(methylsulfonyl)-2-[(4-methoxyphenoxy)carbonyl]-1-methylhydrazine]	–	–	–	–	–	Relative Activation Rate by GSH/GST (GSH/GST): 1,700
